The supplement of paper PMC10331698
± gives the standard deviation of the averaged measurements.

Columns and labels:
Assay in all cases: level (log10 ratio to DMSO vehicle control); higher = higher biomarker level / cell amount than vehicle control
[1] = compound: CN(C(=O)C(F)(F)C(F)(F)C(F)(F)F)[Si](C)(C)C [N-Methyl-N-trimethylsilylheptafluorobutyramide] (in DMSO)
Method: (§1)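 BioMAP Diversity Plus panel of 12 human primary cell co-culture systems (3C, 4H, LPS, SAg, BT, BF4T, BE3C, CASM3C, HDF3CGF, KF3CT, MyoF, Mphg). Compounds were added 1 h before stimulation and left for 24 h (MyoF 48 h; BT 72 h for soluble read-outs or 6 d for IgG). Biomarkers were read by ELISA, cytotoxicity by SRB, PBMC viability and proliferation by Alamar Blue. Each well value was divided by the mean of 8 DMSO control wells on the same plate and log10 transformed; duplicate blinded samples were tested at 4 concentrations.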

[2] = compound: CO[Si](C)(CCC(F)(F)C(F)(F)C(F)(F)C(F)(F)C(F)(F)C(F)(F)F)OC [Dimethoxymethyl((perfluorohexyl)ethyl)silane] (in DMSO)
Method: as §1

[3] = compound: O=C(O)C(F)(F)C(F)(F)C(F)(F)C(F)(F)C(F)(F)C(F)(F)C(F)(F)C(F)(F)C(F)(F)C(F)(F)F [Perfluoroundecanoic acid] (in DMSO); conditions: 6700 nM
Method: as §1

[4] = compound: O=C(O)C=C(C(F)(F)F)C(F)(F)F [3,3-Bis(trifluoromethyl)-2-propenoic acid] (in DMSO)
Method: as §1

[5] = compound: O=C(O)C(F)(F)OC(F)(F)C(F)(F)OC(F)(F)C(F)(F)OC(F)(F)C(F)(F)C(F)(F)C(F)(F)F [Perfluoro-3,6,9-trioxatridecanoic acid] (in DMSO); conditions: 6700 nM
Method: as §1

[6] = compound: O=C(O)C(F)(OC(F)(F)C(F)(OC(F)(F)C(F)(OC(F)(F)C(F)(F)C(F)(F)F)C(F)(F)F)C(F)(F)F)C(F)(F)F [Perfluoro-(2,5,8-trimethyl-3,6,9-trioxadodecanoic)acid] (in DMSO)
Method: as §1

[7] = compound: C[C@@H]1C[C@H]2[C@@H]3CCC4=CC(=O)C=C[C@]4(C)[C@@]3(F)[C@@H](O)C[C@]2(C)[C@@]1(O)C(=O)COP(=O)(O)O [Dexamethasone sodium phosphate] (in DMSO)
Method: as §1

[8] = compound: OCCC(F)(F)C(F)(F)C(F)(F)C(F)(F)F [4:2 Fluorotelomer alcohol] (in DMSO)
Method: as §1

Test System	level (log10) ([1]; 6700 nM)	level (log10) ([1]; 20000 nM)	level (log10) ([1]; 60000 nM)	level (log10) ([2]; 6700 nM)	level (log10) ([2]; 20000 nM)	level (log10) [3]	level (log10) ([4]; 6700 nM)	level (log10) ([4]; 20000 nM)	level (log10) ([4]; 60000 nM)	level (log10) [5]	level (log10) ([6]; 1100 nM)	level (log10) ([6]; 3300 nM)	level (log10) ([6]; 10000 nM)	level (log10) ([7]; 1500 nM)	level (log10) ([7]; 4400 nM)	level (log10) ([7]; 13000 nM)	level (log10) ([7]; 40000 nM)	level (log10) ([8]; 6700 nM)	level (log10) ([8]; 20000 nM)	level (log10) ([8]; 60000 nM)
MyoF:TIMP-1	-0.0385 ± 0.019	-0.027 ± 0.014	-0.017	-0.0175 ± 0.0035	-0.0295 ± 0.018	-0.117 ± 0.055	-0.0545 ± 0.025	-0.023 ± 0.023	-0.0085 ± 0.077	-0.112 ± 0.0085	0.007 ± 0.0014	0.0155 ± 0.013	0.022 ± 0.024	-0.0965 ± 0.047	-0.0915 ± 0.067	-0.135 ± 0.11	-0.12 ± 0.11	-0.001 ± 0.04	0.013 ± 0.075	0.009 ± 0.059
MyoF:alpha-SM Actin	0.0035 ± 0.0021	-0.01 ± 0.0014	0.0005 ± 0.021	-0.0045 ± 0.0064	-0.018 ± 0.018	-0.061 ± 0.0085	-0.003 ± 0.054	-0.01 ± 0.067	-0.0795 ± 0.044	-0.24 ± 0.025	-0.002 ± 0.027	-0.0105 ± 0.00071	0.002 ± 0.062	0.073 ± 0.051	0.084 ± 0.055	0.0695 ± 0.057	0.0745 ± 0.063	-0.021	-0.0225 ± 0.0035	-0.0345 ± 0.018
MyoF:bFGF	0.0025 ± 0.0078	0.012 ± 0.0042	0.0125 ± 0.012	0.002 ± 0.0085	0.0055 ± 0.011	0.0035 ± 0.0092	0.0125 ± 0.0064	0.0075 ± 0.019	0.0325 ± 0.019	-0.059 ± 0.03	-0.014 ± 0.0028	-0.0045 ± 0.0035	0.0075 ± 0.005	-0.035 ± 0.042	-0.0165 ± 0.035	-0.042 ± 0.031	-0.028 ± 0.0042	-0.0015 ± 0.013	-0.0025 ± 0.015	0.004 ± 0.044
lMphg:CCL2/MCP-1	-0.023 ± 0.0085	-0.019 ± 0.0028	0.002 ± 0.034	-0.027 ± 0.0057	0.001 ± 0.033	0.0025 ± 0.028	-0.007 ± 0.0028	-0.016 ± 0.0028	-0.078 ± 0.061	0.001 ± 0.014	0.0025 ± 0.012	-0.0095 ± 0.0078	-0.0125 ± 0.018	-0.0595 ± 0.0078	-0.103 ± 0.0064	-0.117 ± 0.021	-0.126 ± 0.0064	-0.018 ± 0.024	-0.0325 ± 0.0035	-0.014 ± 0.031
lMphg:CCL3/MIP-1alpha	-0.007 ± 0.0057	-0.018 ± 0.011	0.0255 ± 0.032	-0.012 ± 0.0099	0.0065 ± 0.023	-0.004 ± 0.023	-0.0065 ± 0.071	-0.0015 ± 0.023	-0.0075 ± 0.016	-0.0245 ± 0.019	0.0465 ± 0.019	-0.003 ± 0.05	0.039 ± 0.041	-0.139 ± 0.016	-0.173 ± 0.043	-0.254 ± 0.06	-0.209 ± 0.055	-0.009 ± 0.0042	-0.011 ± 0.014	0.0005 ± 0.019
lMphg:CD40	-0.008 ± 0.027	-0.016	-0.0145 ± 0.022	-0.006 ± 0.0014	-0.012 ± 0.013	-0.008 ± 0.018	-0.0255 ± 0.00071	-0.0545 ± 0.0035	-0.071 ± 0.014	-0.0205 ± 0.013	0.019 ± 0.057	0.026 ± 0.076	-0.0195 ± 0.036	-0.0185 ± 0.026	-0.0375 ± 0.0092	-0.038 ± 0.013	-0.103 ± 0.04	0.0015 ± 0.013	0.016 ± 0.0085	0.0025 ± 0.015
lMphg:CD62E/E-Selectin	-0.0115 ± 0.00071	0.0015 ± 0.0021	0.0065 ± 0.0021	0.019 ± 0.0099	0.0135 ± 0.033	-0.004 ± 0.041	-0.049 ± 0.0085	-0.068 ± 0.02	-0.14 ± 0.034	-0.025 ± 0.061	0.002 ± 0.0014	-0.03 ± 0.0028	-0.0275 ± 0.026	-0.147 ± 0.0028	-0.212 ± 0.0042	-0.239 ± 0.089	-0.292 ± 0.061	-0.0075 ± 0.022	-0.003 ± 0.013	0.0185 ± 0.0021
lMphg:CD69	0.0015 ± 0.005	-0.0075 ± 0.035	-0.039 ± 0.045	-0.0205 ± 0.018	-0.0435 ± 0.037	-0.048 ± 0.083	-0.069 ± 0.024	-0.0915 ± 0.0078	-0.0275 ± 0.067	-0.056 ± 0.083	-0.02 ± 0.0099	-0.017 ± 0.0042	-0.008 ± 0.0014	0.039 ± 0.014	-0.007 ± 0.017	-0.0155 ± 0.029	-0.0585 ± 0.022	0.0115 ± 0.07	0.007 ± 0.041	0.0155 ± 0.0035
lMphg:CD106/VCAM-1	-0.025 ± 0.0028	-0.0055 ± 0.025	-0.028 ± 0.042	0.009 ± 0.021	-0.009 ± 0.028	-0.004 ± 0.0057	-0.0205 ± 0.005	-0.025 ± 0.0099	-0.0935 ± 0.0064	-0.017 ± 0.011	0.001 ± 0.0014	0.003 ± 0.021	0.0015 ± 0.044	-0.018 ± 0.0071	-0.039 ± 0.0028	-0.0615 ± 0.013	-0.086 ± 0.0042	-0.0025 ± 0.016	0.0005 ± 0.011	0.0005 ± 0.025
lMphg:CXCL8/IL-8	-0.0215 ± 0.0078	0.009 ± 0.027	0.0155 ± 0.025	-0.0095 ± 0.029	0.0025 ± 0.015	0.01 ± 0.013	0.081 ± 0.016	0.123 ± 0.014	0.201 ± 0.047	0.126 ± 0.016	0.0035 ± 0.04	0.005 ± 0.02	0.0375 ± 0.033	-0.108 ± 0.0064	-0.138 ± 0.015	-0.136 ± 0.011	-0.129 ± 0.034	0.003	0.0065 ± 0.033	0.0275 ± 0.035
lMphg:IL-1alpha	-0.038 ± 0.0014	-0.034 ± 0.0071	0.017 ± 0.052	-0.032 ± 0.0014	0.0125 ± 0.073	0.022 ± 0.045	-0.073 ± 0.068	-0.0565 ± 0.052	-0.043 ± 0.075	0.013 ± 0.025	-0.0225 ± 0.021	-0.026 ± 0.016	0.0045 ± 0.0078	-0.0345 ± 0.005	-0.0335 ± 0.0092	-0.102 ± 0.05	-0.096 ± 0.0099	-0.0295 ± 0.013	-0.0105 ± 0.005	0.0075 ± 0.028
lMphg:M-CSF	-0.033 ± 0.014	-0.018 ± 0.025	-0.0045 ± 0.0064	-0.0075 ± 0.036	0.0135 ± 0.025	0.016 ± 0.02	-0.033 ± 0.0071	-0.021 ± 0.021	-0.0325 ± 0.022	0.023 ± 0.0071	-0.0095 ± 0.00071	-0.0065 ± 0.022	0.0145 ± 0.021	-0.022 ± 0.034	-0.031 ± 0.058	-0.0455 ± 0.028	-0.0495 ± 0.0021	-0.021 ± 0.017	-0.003 ± 0.018	-0.0025 ± 0.039
lMphg:SRB	-0.0015 ± 0.005	0 ± 0.0099	0.003 ± 0.0014	-0.0025 ± 0.0092	-0.0045 ± 0.00071	-0.001 ± 0.011	-0.0145 ± 0.013	-0.0205 ± 0.0021	-0.0205 ± 0.028	-0.014 ± 0.0085	-0.005	-0.0115 ± 0.0092	-0.005 ± 0.0042	-0.0045 ± 0.0092	-0.0125 ± 0.0078	-0.006 ± 0.0014	-0.0265 ± 0.0021	0.001 ± 0.0099	0.0015 ± 0.0035	0.004 ± 0.0071
lMphg:SRB-Mphg	0.0035 ± 0.00071	0.002 ± 0.031	0.015 ± 0.02	0.0195 ± 0.0021	0.0295 ± 0.0021	-0.019 ± 0.016	-0.032	-0.017 ± 0.014	0.0035 ± 0.012	0.0035 ± 0.0035	-0.0035 ± 0.00071	-0.0135 ± 0.0092	0.014 ± 0.014	-0.0225 ± 0.022	-0.0625 ± 0.005	-0.0715 ± 0.018	-0.0805 ± 0.057	-0.007 ± 0.03	-0.004 ± 0.018	0.016 ± 0.017
